Here are results for two molecules from patent US20170342451A1, “BIOSYNTHESIS OF PACLITAXEL INTERMEDIATE” (Board of Trustees of Michigan State University, priority 2012, published 2017).

The target in the assay is T1, TycA (Brevibacillus parabrevis, UniProt P09095).
T1 construct: this wild-type tycA cDNA encoding the A-, T-, and E-domains was subcloned into a pSU18 vector; made in house; host or cells: Escherichia coli BL21(DE3)
T1 sequence (P09095 with tags, fused parts or gaps): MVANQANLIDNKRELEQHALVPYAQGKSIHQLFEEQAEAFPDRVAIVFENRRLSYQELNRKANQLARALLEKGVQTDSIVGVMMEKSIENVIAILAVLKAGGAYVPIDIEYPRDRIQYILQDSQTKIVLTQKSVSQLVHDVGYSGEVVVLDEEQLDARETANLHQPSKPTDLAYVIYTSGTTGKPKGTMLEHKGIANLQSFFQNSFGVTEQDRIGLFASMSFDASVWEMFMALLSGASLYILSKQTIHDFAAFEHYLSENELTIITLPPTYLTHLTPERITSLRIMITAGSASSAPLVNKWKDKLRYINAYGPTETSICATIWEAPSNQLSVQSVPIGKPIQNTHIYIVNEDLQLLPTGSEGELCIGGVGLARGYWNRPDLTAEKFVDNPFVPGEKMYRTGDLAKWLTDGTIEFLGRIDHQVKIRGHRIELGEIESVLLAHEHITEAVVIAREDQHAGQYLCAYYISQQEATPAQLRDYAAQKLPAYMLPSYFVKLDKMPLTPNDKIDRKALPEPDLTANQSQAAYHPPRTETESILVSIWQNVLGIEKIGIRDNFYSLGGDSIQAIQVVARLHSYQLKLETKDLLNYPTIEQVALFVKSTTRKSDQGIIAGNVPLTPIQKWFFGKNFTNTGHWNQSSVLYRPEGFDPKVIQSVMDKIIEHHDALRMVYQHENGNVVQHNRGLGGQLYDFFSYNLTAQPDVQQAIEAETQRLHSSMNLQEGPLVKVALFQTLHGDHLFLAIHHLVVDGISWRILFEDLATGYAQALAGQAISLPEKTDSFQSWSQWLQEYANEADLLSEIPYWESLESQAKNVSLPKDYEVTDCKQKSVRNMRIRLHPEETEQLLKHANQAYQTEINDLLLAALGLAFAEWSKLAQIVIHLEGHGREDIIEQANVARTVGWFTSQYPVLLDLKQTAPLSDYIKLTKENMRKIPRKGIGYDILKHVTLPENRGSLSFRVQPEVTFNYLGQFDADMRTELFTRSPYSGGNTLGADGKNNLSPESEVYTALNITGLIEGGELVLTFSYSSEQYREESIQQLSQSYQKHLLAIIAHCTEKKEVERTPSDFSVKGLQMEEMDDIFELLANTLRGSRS
The assay is described as follows: CoA ligase reaction kinetics, TycA. It counts as biochemical, Brevibacillus brevis. The settings on record: for kcat^CoA: turnover with CoA at apparent saturation. Here is the method:
Under steady-state conditions, (S)-α-phenylalanine, (R)-β-phenylalanine, and (2R,3S)-phenylisoserine at 5, 10, 20, 40, 80, 160, 250, 500, 1000 and 2000 μM were separately incubated with TycA or TycA-S563A (20 μg) for 30 min. At the end of each reaction, and prior to mass spectrometry analysis, acetyl CoA (1 μM) was added as the internal standard to each sample to correct for variations of the analyte. The products of the enzyme-catalyzed reaction were quantified by a liquid chromatography multiple reaction monitoring (LC-ESI-MRM) mass spectrometry technique (Anderson & Hunter, Mol. Cell. Proteomics 5: 573-588 (2006)) on the Quattro-Premier Electro-Spray Mass Spectrometer coupled with Acquity® UPLC system fitted with a C18 Ascentis Express column (2.5×50 mm, 2.7 μm) at 30° C. An aliquot (5 μL) of each sample was loaded onto the column and the analytes were eluted with a solvent gradient of acetonitrile (Solvent A) in 0.05% triethylamine in distilled water (Solvent B). Elution was held at 2.5% Solvent A for 3.17 min, increased to 100% Solvent A over 5 sec with a 2-min hold, and then returned to 2.5% Solvent A over 5 sec with a 50-sec hold. The flow rate employed was 0.4 mL/min. The effluent from the chromatography column was directed to the mass spectrometer where the first quadrupole mass analyzer (in negative ion mode) was set to select for the molecular ion of a biosynthesized acyl CoA product. The selected ion was then directed to a collision gas chamber where the collision energy was optimized to maximize the abundance of a single signature fragment ion (m/z 408, characteristic of acyl CoA thioesters) resolved in the second quadrupole mass analyzer by the MRM method. The peak area under the curve of fragment ion m/z 408 for each biosynthetic phenylpropionyl CoA thioester was converted to concentration by comparing the peak area of the same ion produced by authentic CoA (at 0.05, 0.1, 0.2, 0.4, 0.8, 1.6, 3.2, 6.4, 12.5, 25, 50, 100 μM) using linear regression analysis.
The KM values of TycA and TycA-S563A for CoA were assessed by incubating each enzyme separately with (S)-α-phenylalanine (1 mM), MgCl2 (3 mM), ATP (1 mM), and CoA at 0.05, 0.1, 0.2, 0.4, 0.8, 1.6, 3.2, 6.4, 12.8 and 25.6 mM at 31° C. for 20 min. At the end of each reaction and prior to mass spectrometry analysis, acetyl CoA (1 μM) was added as the internal standard to each sample to correct for variations of the analyte. The products of the enzyme-catalyzed reaction were quantified by LC-ESI-MRM, and the monitored fragment ion (m/z 408) derived from the CoA moiety of the thioester analytes in the effluent was quantified identically to the procedure described earlier herein.

[1] abbreviates: TycA, CoA with (S)-α-Phe as cosubstrate.

With `N[C@H](CC(=O)O)c1ccccc1` [(R)-β-Phe, (R)-β-phenylalanine], for the setting “TycA with CoA”, the “catalytic preference of TycA, higher than for (2R,3S)-Phenylisoserine” value is given as 10 fold and the “catalytic preference of TycA, higher than for (S)-α-Phe” value is 5 fold. Besides, the “kcat^CoA” value under setting [1] was found to be 0.0267 ± 0.005 s⁻¹.
On to `N[C@@H](c1ccccc1)[C@@H](O)C(=O)O` [(2R,3S)-PheIso, (2R,3S)-phenylisoserine], for which, for the setting “TycA, CoA 1 mM, ATP 1 mM, MgCl2 3 mM, 31° C., CoA with (S)-α-Phe as cosubstrate”, the Km amounted to 89.3 ± 15 µM. Besides, the “kcat^CoA” value under setting [1] stood at 0.00417 ± 0.00033 s⁻¹.

For orientation: Km means the concentration of substrate that gives half-maximal velocity.
